Data as given in ChEMBL document CHEMBL1201862, “PubChem BioAssay data set” (2004).
Activity calls are given as the source filed them.

Columns and labels:
[1] = tested on: INS1; assay: beta cell apoptosis inhibitors, cytokine rescue, dose response, luminescence, retest (AID 449756); type: functional, cell-based; details: Rattus norvegicus;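 also: cell death triggered by IL-1 beta plus TNF-alpha plus IFN-gamma mixture; protective hits raise ATP signal compared with cytokine alone wells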
[2] = target: COUP transcription factor 2 (Homo sapiens, UniProt P24468); assay: Luminescence-based cell-based high throughput dose response assay to identify inhibitors of COUP-TFII (NR2F2).; type: functional;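 also: HEK293 cells transiently cotransfected with COUP-TFII expression vector and reporter; luciferase reporter luminescence driven by COUP-TFII from the pX2-168 reporter plasmid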
[3] = target: Beta-lactamase (Salmonella choleraesuis (strain SC-B67), UniProt Q5J463); assay: Epi-absorbance-based counterscreen for selective VIM-2 inhibitors: dose response biochemical high throughput screening assay to identify inhibitors of TEM-1 serine-beta-lactamase.
[4] = target: T1, Beta-lactamase (Pseudomonas aeruginosa, UniProt Q79MP6); assay: IMP-1 metallo-beta-lactamase inhibitors, dose response, selectivity assay for VIM-2 inhibitor project, biochemical, epi-absorbance (AID 1920)
[5] = target: T1, Beta-lactamase; assay: […] counterscreen for selective VIM-2 inhibitors: dose response biochemical high throughput screening assay to identify inhibitors of IMP-1 metallo-beta-lactamase.
[6] = ADAM10 inhibitors, peptide cleavage, dose response, biochemical, QFRET (AID 743254);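 also: ADAM10 enzyme with the DM2 quenched FRET peptide as substrate; EDANS fluorescence gain as the protease cuts the substrate; inhibitor potency against ADAM10 proteolytic activity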
[7] = cytotoxicity toward NIH3T3 fibroblasts, dose response, counter-screen, cell-based, ATP luminescence, mouse fibroblasts (AID 2010); type: functional;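 also: cells exposed to compound for about 90 hours before reading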
[8] = target: Voltage-dependent T-type calcium channel subunit alpha-1H (Homo sapiens, UniProt O95180); type: functional;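 also: channel activity triggered by adding a high calcium stimulation buffer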
[9] = inhibitors of intracellular T. cruzi replication, confirmation, NIH3T3 host cells, beta-gal luminescence (AID 2044); type: functional, cell-based;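 also: intracellular parasites grown in NIH/3T3 mouse fibroblasts as host cells; luminescent beta-galactosidase reporter signal from transgenic T. cruzi replicating inside host cells; inhibitors lower the luminescence signal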
[10] = target: T2, Disintegrin and metalloproteinase domain-containing protein 17 (Homo sapiens, UniProt P78536); assay: ADAM17 protease inhibitors, dose response, counter-screen for ADAM10 exosite inhibitor project, biochemical, quenched FRET substrate (AID 743253)
[11] = tested on: HT-1080; assay: cytotoxicity in HT1080 fibrosarcoma cells, cell-based, fluorescence readout (AID 620); type: functional; details: Homo sapiens
[12] = target: Fructose-bisphosphate aldolase (Mycobacterium tuberculosis, UniProt P9WQA3); assay: Fluorescence-based biochemical high throughput dose response assay for inhibitors of the fructose-bisphosphate aldolase (FBA) of M. tuberculosis.; type: functional
[13] = target: Luciferin 4-monooxygenase (Photinus pyralis, UniProt P08659); assay: Counter Screen for Luciferase-based Assay Positives. [Related pubchem assays: 620, 618, 411 ]
[14] = target: T3, Heat shock factor protein 1 (Mus musculus, UniProt P38532); assay: HSF1 potentiators in luciferase reporter cells, confirmation, cell-based, NIH3T3, luminescence, dose retest (AID 435004); type: functional;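 also: stress induced by proteasome inhibitor MG132 added 30 min after compound; luciferase reporter driven by HSF1 response element in NIH3T3 cells; actives raise luminescence as potentiators of the MG132 stress response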
T3 sequence (P38532 whole entry): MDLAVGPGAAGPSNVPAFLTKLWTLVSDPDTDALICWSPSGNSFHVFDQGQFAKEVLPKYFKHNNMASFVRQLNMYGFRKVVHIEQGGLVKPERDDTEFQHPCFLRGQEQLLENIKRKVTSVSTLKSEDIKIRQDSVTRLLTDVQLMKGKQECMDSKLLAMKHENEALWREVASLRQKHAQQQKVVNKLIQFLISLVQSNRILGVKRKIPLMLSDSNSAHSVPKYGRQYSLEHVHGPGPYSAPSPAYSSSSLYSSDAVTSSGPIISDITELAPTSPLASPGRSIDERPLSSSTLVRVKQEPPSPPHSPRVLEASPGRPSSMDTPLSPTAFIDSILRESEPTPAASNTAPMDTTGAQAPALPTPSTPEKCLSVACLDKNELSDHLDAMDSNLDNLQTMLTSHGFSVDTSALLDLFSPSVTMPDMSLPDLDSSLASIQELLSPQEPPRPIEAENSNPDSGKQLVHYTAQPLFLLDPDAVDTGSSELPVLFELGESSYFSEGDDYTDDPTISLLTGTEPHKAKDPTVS

[15] = HEp-2 cell cytotoxicity, dose response, cytotoxicity control for RSV inhibitor project, HTS (AID 2410); type: functional; details: human respiratory syncytial virus
[16] = target: T2, Disintegrin and metalloproteinase domain-containing protein 17; assay: exosite inhibitors of ADAM17, dose response, biochemical (AID 743260)
[17] = ADAM10 protease inhibitors, dose response, selectivity assay for ADAM17 exosite inhibitor project, biochemical, FRET peptide substrate, recombinant human ADAM10 (AID 743259);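 also: ADAM10 enzyme cleaving a FRET peptide substrate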
[18] = target: Caspase-6 (Homo sapiens, UniProt P55212); assay: human caspase-6 inhibitors, dose response, biochemical, VEID-R110 fluorescence, cherry-pick (AID 720632)
[19] = target: SWI/SNF-related matrix-associated actin-dependent regulator of chromatin subfamily A member 2 (Homo sapiens, UniProt P51531); assay: Luminescence-based cell-based high throughput dose response assay to identify activators of the function of SWI/SNF related, matrix associated, actin dependent regulator of chromatin, subfamily a, member 2 (SMARCA2, BRM).; type: functional
[20] = Counterscreen for activators of the function of SWI/SNF related, matrix associated, actin dependent regulator of chromatin, subfamily a, member 2 (SMARCA2, BRM): Luminescence-based cell-based high throughput dose response assay to identify non-selective compounds using the VP16 reporter assay.; type: functional
[21] = HEK293T cytotoxicity, dose response, cytotoxicity control for miR-122 modulator project, cell-based, activator set, cherry-pick (AID 720690); type: functional;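 also: HEK293T human cells scored for general mammalian cytotoxicity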
[22] = miR-122 activators in hepatoma reporter cells, dose response, cell-based, Huh7 psiCHECK-miR122, Renilla luciferase, cherry-picked (AID 651956); type: functional;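 also: huh7 hepatoma cells stably carrying a psiCHECK-2 miR-122 sensor plasmid; renilla luciferase signal reporting endogenous miR-122 activity after 48 h compound exposure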
[23] = HEK293T cytotoxicity, dose response, cytotoxicity control for miR-122 modulator project, cell-based, inhibitor set, cherry-pick, set 2 (AID 720697); type: functional
[24] = target: Tyrosyl-DNA phosphodiesterase 2 (Homo sapiens, UniProt O95551); assay: human TDP2 enzyme inhibitors, dose response, biochemical, epi absorbance, IC50 (AID 743297)
[25] = A2780 ovarian cancer cell cytotoxicity, dose response, cytotoxicity control, plate reader, dry powder samples (AID 743046); type: functional, cell-based
[26] = NIH:OVCAR-3 ovarian cancer cell cytotoxicity, dose response, PAX8 inhibitor project, plate reader, dry powder samples (AID 743044); type: functional, cell-based
[27] = target: Paired box protein Pax-8 (Homo sapiens, UniProt Q06710); assay: inhibitors of PAX8-driven TPO luciferase reporter, dose response, RMG-I cells, cherry-pick (AID 687027); type: functional, cell-based;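 also: luciferase reporter driven by Pax8 target thyroperoxidase promoter measured by SteadyGlo luminescence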
[28] = cytotoxicity in OVCAR8 ovarian cancer cells, dose response, PAX8 project, cell-based, plate reader, dry powder samples (AID 743197); type: functional; details: OVCAR-8
[29] = P. falciparum Dd2 growth inhibitors, dose response, SYBR Green, cherry-picked samples (AID 1159567); type: functional, cell-based
[30] = T. cruzi growth inhibition in host cells, dose response, cell-based, plate reader, dry powder, set 2 (AID 652275); type: functional
[31] = LGR2 antagonists, dose response, cell-based, HEK293, CRE-luciferase reporter, cherry pick (AID 743342); type: functional
[32] = Late stage assay provider results from the probe development effort to identify inhibitors of the Plasmodium falciparum M18 Aspartyl Aminopeptidase (M18AAP): radiolabel-based cell-based dose response assay to identify compounds that inhibit P. falciparum growth in RBCs, Set 2..; type: functional
[33] = A549 cell cytotoxicity, dose response, cytotoxicity control, plate reader, cherry-pick, antagonist series (AID 743412); type: functional, cell-based
[34] = HEK293 cell cytotoxicity, dose response, cytotoxicity control, plate reader, cherry-picked samples (AID 743446); type: functional, cell-based

T1 sequence (Q79MP6 whole entry): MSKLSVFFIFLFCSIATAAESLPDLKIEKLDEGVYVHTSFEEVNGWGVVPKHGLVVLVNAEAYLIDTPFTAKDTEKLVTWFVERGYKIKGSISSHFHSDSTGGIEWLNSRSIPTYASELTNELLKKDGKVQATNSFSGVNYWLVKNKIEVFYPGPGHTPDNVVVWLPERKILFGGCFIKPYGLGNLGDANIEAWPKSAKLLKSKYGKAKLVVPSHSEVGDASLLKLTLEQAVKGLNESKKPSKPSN
T2 sequence (P78536 whole entry, the tested form may be a part): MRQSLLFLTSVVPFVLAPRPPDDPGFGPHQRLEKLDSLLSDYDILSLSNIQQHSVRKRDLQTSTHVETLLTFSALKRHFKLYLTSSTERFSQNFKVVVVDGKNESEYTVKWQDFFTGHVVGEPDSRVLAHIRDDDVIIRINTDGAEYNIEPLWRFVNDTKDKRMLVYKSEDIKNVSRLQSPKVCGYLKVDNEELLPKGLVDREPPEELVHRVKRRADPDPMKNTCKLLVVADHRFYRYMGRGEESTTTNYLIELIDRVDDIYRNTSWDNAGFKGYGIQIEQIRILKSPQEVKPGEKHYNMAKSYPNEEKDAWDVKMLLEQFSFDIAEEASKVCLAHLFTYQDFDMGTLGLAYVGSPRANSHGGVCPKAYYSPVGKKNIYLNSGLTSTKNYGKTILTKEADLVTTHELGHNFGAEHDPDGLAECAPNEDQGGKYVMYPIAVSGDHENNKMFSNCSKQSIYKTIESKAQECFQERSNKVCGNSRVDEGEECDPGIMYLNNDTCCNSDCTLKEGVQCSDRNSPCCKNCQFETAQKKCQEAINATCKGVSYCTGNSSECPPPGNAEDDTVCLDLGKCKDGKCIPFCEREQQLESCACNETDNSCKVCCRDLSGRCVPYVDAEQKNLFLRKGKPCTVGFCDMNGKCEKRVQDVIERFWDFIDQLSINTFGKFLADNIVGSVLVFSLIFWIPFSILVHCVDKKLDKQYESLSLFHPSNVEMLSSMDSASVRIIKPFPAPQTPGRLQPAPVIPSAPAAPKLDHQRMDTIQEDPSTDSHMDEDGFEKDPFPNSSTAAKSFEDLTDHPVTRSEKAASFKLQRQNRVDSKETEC
Sequence of Beta-lactamase (Salmonella choleraesuis (strain SC-B67), UniProt Q5J463) (Q5J463 whole entry): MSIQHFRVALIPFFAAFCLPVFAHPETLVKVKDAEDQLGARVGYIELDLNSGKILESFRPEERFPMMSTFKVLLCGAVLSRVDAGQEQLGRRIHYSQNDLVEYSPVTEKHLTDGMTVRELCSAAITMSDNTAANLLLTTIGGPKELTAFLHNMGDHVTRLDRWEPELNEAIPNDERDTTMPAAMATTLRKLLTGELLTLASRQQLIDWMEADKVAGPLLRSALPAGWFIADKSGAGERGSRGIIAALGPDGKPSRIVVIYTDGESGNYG
Sequence of SWI/SNF-related matrix-associated actin-dependent regulator of chromatin subfamily A member 2 (P51531 whole entry): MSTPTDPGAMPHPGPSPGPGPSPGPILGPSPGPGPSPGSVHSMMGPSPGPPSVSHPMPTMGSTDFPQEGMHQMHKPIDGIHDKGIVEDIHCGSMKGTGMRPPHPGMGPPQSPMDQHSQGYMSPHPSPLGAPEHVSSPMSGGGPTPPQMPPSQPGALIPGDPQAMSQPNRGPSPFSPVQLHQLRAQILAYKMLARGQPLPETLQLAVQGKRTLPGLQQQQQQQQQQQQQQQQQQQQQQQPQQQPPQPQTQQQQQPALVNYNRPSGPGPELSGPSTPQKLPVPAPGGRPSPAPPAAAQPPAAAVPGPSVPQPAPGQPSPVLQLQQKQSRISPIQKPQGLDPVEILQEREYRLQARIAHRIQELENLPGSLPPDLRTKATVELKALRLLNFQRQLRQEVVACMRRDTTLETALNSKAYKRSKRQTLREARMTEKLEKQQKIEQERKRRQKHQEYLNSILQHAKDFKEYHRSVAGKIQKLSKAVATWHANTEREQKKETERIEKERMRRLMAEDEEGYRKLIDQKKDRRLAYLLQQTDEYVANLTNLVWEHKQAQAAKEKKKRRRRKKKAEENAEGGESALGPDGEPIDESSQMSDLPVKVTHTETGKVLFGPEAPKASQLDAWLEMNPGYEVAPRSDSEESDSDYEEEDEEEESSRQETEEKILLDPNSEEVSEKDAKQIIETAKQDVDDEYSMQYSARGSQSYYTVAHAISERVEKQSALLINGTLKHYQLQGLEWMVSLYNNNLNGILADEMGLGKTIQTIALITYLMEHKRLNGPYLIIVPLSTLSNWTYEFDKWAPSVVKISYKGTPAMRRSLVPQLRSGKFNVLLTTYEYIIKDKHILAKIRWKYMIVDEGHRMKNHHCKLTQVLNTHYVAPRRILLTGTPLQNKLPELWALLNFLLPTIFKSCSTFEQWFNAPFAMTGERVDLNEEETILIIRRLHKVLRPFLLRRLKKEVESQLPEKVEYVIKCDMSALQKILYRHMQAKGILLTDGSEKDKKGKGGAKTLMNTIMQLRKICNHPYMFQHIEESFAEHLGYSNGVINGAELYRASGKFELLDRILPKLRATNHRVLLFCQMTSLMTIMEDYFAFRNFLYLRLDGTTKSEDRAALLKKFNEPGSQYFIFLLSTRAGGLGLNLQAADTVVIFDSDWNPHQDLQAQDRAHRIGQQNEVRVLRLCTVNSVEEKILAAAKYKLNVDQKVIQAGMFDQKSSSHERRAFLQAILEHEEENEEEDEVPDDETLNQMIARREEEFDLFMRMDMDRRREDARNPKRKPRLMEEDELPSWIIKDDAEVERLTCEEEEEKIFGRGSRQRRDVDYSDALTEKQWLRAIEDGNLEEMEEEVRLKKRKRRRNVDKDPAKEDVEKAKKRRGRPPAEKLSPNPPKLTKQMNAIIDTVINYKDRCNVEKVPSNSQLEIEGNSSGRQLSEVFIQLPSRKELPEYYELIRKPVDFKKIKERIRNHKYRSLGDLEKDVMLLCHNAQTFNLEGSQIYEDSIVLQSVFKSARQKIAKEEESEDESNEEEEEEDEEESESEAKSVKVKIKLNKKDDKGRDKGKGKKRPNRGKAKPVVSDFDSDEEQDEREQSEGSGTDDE
Sequence of Paired box protein Pax-8 (Q06710 whole entry): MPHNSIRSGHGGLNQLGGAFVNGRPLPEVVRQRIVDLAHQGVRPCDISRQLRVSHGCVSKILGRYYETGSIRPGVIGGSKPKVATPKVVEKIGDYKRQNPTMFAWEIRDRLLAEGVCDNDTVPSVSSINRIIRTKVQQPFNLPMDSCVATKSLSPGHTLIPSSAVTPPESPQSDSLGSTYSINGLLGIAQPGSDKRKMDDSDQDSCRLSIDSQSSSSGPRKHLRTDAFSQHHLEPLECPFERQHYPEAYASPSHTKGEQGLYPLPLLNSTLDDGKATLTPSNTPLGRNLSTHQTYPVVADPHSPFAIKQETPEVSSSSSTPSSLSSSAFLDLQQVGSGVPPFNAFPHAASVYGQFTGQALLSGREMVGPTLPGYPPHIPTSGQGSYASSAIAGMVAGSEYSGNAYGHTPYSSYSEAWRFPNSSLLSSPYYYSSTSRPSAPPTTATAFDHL
Sequence of Fructose-bisphosphate aldolase (P9WQA3 whole entry): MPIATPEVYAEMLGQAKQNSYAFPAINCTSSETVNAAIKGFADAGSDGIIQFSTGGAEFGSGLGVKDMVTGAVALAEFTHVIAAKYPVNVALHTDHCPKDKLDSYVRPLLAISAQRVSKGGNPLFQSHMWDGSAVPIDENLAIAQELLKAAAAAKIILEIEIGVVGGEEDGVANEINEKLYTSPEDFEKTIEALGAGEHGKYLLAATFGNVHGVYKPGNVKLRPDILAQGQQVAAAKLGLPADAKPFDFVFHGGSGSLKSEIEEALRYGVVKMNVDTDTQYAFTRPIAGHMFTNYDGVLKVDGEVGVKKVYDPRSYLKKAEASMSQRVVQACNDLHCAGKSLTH
Sequence of Luciferin 4-monooxygenase (P08659 whole entry): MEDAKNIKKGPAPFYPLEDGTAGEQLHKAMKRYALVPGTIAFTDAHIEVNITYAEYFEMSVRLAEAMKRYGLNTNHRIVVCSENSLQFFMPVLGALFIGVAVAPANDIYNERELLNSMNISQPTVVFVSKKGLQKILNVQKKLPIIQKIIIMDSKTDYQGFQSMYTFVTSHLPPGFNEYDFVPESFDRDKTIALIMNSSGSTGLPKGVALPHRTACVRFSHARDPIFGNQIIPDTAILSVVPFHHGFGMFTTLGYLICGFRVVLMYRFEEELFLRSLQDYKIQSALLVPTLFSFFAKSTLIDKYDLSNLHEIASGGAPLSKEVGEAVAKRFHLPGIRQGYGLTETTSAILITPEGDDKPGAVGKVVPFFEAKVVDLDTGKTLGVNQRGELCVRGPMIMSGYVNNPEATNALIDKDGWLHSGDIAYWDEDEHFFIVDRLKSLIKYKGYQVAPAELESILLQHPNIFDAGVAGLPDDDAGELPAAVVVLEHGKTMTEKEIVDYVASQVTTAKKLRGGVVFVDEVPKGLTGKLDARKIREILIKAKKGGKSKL
Sequence of Caspase-6 (P55212 24-179 limits assumed): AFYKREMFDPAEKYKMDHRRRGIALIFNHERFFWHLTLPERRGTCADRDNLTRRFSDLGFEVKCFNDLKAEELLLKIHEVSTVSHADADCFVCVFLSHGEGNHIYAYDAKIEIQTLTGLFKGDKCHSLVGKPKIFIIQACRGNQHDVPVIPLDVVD
Sequence of Caspase-6 (P55212 194-293 limits assumed): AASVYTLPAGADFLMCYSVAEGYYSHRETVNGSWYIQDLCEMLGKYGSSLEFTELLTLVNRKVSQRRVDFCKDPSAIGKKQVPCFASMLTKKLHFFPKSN
Sequence of Tyrosyl-DNA phosphodiesterase 2 (O95551 whole entry): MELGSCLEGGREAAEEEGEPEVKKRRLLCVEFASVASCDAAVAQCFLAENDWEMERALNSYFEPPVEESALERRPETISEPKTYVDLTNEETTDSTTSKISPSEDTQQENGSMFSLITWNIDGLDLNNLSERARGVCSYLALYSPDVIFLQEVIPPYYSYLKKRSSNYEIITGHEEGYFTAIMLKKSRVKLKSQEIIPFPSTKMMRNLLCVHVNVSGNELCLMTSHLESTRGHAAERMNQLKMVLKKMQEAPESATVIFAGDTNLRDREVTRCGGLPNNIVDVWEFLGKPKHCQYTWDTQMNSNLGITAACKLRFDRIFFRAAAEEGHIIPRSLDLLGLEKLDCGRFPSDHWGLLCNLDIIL

## O=C(NCC(c1ccco1)N1CCCC1)c1ccc(Cl)c(S(=O)(=O)N2CCc3ccccc32)c1 (centres undefined)
[1]
  AC50: 3.56 µM (active)
[2]
  IC50: 7.01 µM (active)

## CC1CCCCC1n1c(S)nnc1-c1cccnc1 (centres undefined)
[3]
  IC50: > 59.6 µM (inactive)
[4]
  IC50: > 59.6 µM (inactive)
[5]
  IC50: > 59.6 µM (inactive)

## Cc1cccc2cc(CN(Cc3ccco3)C(=O)Nc3cccc(C#N)c3)c(Cl)nc12
[6]
  IC50: > 69.5 µM (inactive)
[7]
  EC50: 26.5 µM (active)
[8]
  EC50: 6.15 µM (active)
[9]
  EC50: 1.94 µM (active)
[10]
  IC50: > 69.5 µM (inactive)

## Cc1ccc2nc(-c3cccc(N)c3)oc2c1
[11]
  EC50: > 50 µM (not active)
[12]
  IC50: 0.588 µM (active)
[13]
  EC50: 9.87 µM (active)

## N#Cc1c(-c2ccccc2)c(-c2ccccc2)n(Cc2ccco2)c1NC(=O)c1cccs1
[6]
  IC50: > 69.5 µM (inactive)
[14]
  EC50: > 260 µM (inactive)
[10]
  IC50: > 69.5 µM (inactive)

## COc1ccc(Cn2nnnc2C(CC(C)C)N2CCN(c3ccccc3)CC2)cc1 (centres undefined)
[15]
  CC50: > 50 µM (active)
[12]
  IC50: > 9.99 µM (inactive)

## Cc1cc(=O)oc2c3c(cc(OCC(=O)N4CCC[C@H]4C(=O)O)c12)OC(C)(C)CC3
[3]
  IC50: > 59.6 µM (inactive)
[4]
  IC50: > 59.6 µM (inactive)
[5]
  IC50: > 59.6 µM (inactive)

## COc1ccc(Cn2cc(CN3CCS(=O)(=O)N(Cc4ccc(-c5cccc(Cl)c5)cc4)C(C)C3=O)nn2)cc1 (centres undefined)
[16]
  IC50: > 69.5 µM (inactive)
[17]
  IC50: > 69.5 µM (inactive)

## Cc1ccc(Sc2ccc(S(=O)(=O)Nc3ccc(CC(=O)O)cc3)cc2)cc1C
[18]
  AC50: 49.3 µM (active)

## CC(=O)Nc1cc(-c2ccc(N3CCN(C)CC3)cc2)cn2c(-c3ccc(F)cc3)cnc12
[19]
  EC50: > 91.2 µM (inactive)
[20]
  EC50: > 91.2 µM (inactive)

## C[C@@H]1CCCCO[C@@H](CN(C)CC2CCCCC2)[C@H](C)CN([C@H](C)CO)C(=O)c2cc(NC(=O)Nc3cccc4ccccc34)ccc2O1
[21]
  AC50: 14.8 µM (active)
[22]
  AC50: 7.47 µM (active)
[23]
  AC50: 13.8 µM (active)

## CC(C)(C)NC(=O)C(CCc1ccccc1)n1c(=O)c(-c2ccccc2)nc2ccccc21 (centres undefined)
[19]
  EC50: > 91.1 µM (inactive)
[20]
  EC50: > 91.1 µM (inactive)

## COc1ccc(-c2[nH]nc(O)c2NC(=O)c2ccc(C)cc2)cc1
[24]
  IC50: > 128 µM (inactive)

## C[C@H](CO)N1C[C@H](C)[C@@H](CN(C)S(=O)(=O)c2ccc(Cl)cc2)OCCCC[C@H](C)Oc2ccc(NS(=O)(=O)c3ccc(F)cc3)cc2C1=O
[25]
  AC50: 29.1 µM (active)
[26]
  AC50: 36 µM (active)
[27]
  AC50: 4.45 µM (active)

## CC(C)NC(=O)N1Cc2cc(C(=O)NCC(F)(F)F)nc(-c3cccc(-c4cc5ccccc5o4)c3)c2[C@H]1CCO
[28]
  AC50: 58.2 µM (active)
[25]
  AC50: 16.8 µM (active)
[29]
  AC50: 5.15 µM (active)
[26]
  AC50: 38.2 µM (active)
[27]
  AC50: 7.2 µM (active)

## CN(C)CC#Cc1cccc(-c2nc(C(=O)NCc3ccc(Oc4ccccc4)cc3)cc3c2[C@@H](CCO)N([S+]([O-])C(C)(C)C)C3)c1 (some centres undefined)
[30]
  AC50: 0.697 µM (active)

## CN1C(=O)c2cc(NC(=O)C3CC3)ccc2OC[C@@H]2O[C@H](CC(=O)NC3CCC3)CC[C@H]21
[23]
  AC50: 9.32 µM (active)

## CCOC(=O)c1cc2c(c(-c3cccc(C#CCN(C)C)c3)n1)[C@@H](CCO)N([S+]([O-])C(C)(C)C)C2 (some centres undefined)
[30]
  AC50: 16.2 µM (active)

## COc1ccc(NC(=O)N(C)C[C@@H]2OCCCC[C@H](C)Oc3ccc(NC(=O)NC4CCCCC4)cc3C(=O)N([C@H](C)CO)C[C@@H]2C)cc1
[31]
  AC50: 18.2 µM (active)

## COc1cccc(CCNc2c3ccccc3nc3ccccc23)c1
[32]
  IC50: 0.6 µM (active)

## Oc1ccc(CCNC2CCN(Cc3ccccc3)CC2)cc1O
[32]
  IC50: 6.5 µM (active)

## C[C@H](CO)N1C[C@H](C)[C@H](CN(C)C(=O)Nc2ccc(C(F)(F)F)cc2)OCCCC[C@H](C)Oc2ccc(NC(=O)CCC(F)(F)F)cc2C1=O
[31]
  AC50: 1.29 µM (active)
[33]
  AC50: 35.6 µM (active)
[34]
  AC50: 32.9 µM (active)
